Patent publication US20100173914A1, “PHARMACEUTICALS, COMPOSITIONS AND METHODS OF MAKING AND USING THE SAME” (priority 2007, published 2010)

What was measured:
[1] = target: T1, human adenosine A1 receptors (Homo sapiens, UniProt P30542); experiment: Adenosine receptor binding: binding affinities at hA1 receptors ([3H]DPCPX displacement); details: displacement of [3H]DPCPX, membranes of CHO-K1 cells transfected with human A1
T1 construct: expressed in transfected cells; host or cells: CHO-K1
T1 sequence (P30542 1-326): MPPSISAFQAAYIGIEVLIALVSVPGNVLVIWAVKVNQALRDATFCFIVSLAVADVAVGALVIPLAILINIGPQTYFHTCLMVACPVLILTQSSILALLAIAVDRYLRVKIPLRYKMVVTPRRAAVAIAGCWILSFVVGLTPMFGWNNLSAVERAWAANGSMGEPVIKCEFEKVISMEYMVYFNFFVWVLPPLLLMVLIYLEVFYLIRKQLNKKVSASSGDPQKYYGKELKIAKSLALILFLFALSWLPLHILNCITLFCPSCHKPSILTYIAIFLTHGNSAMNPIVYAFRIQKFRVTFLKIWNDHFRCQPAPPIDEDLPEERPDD
Excerpt: Adenosine Receptor Binding: Binding Affinities at hA1 Receptors
The compounds were examined in an assay measuring in vitro binding to human adenosine A1 receptors by determining the displacement of the adenosine A1 receptor selective radioligand 8-Cyclopentyl-1,3-dipropylxanthine ([^3H]DPCPX) using standard techniques. See, for example, Lohse M J, et al., (1987), 8-Cyclopentyl-1,3-dipropylxanthine (DPCPX)—a selective high affinity antagonist radioligand for A1 adenosine receptors. Naunyn Schmiedebergs Arch Pharmacol., 336(2):204-10, which is incorporated by reference in its entirety.
Frozen CHO-K1 cells (transfected with a human adenosine A1 recepter expression vector) were homogenized in 130 mL of 50 mM Tris HCl buffer (pH 7.5) containing 10 mM MgCl2, and 0.1 IU/mL adenosine deaminase per pellet using a Ultra-Turrax homogeniser. The resultant homogenate was kept for immediate use in the binding. Binding assays were performed in a total volume of 250 μL, containing [^3H]-DPCPX (3.0 nM), membranes and additional drugs. Total binding was determined using drug dilution buffer (50 mM Tris-HCl pH:7.5, 10 mM MgCl2, 5% DMSO). Non-specific binding was determined using 300 μM N6-cyclohexyladenosine (CHA). Following incubation for 90 minutes at 21° C., assays were terminated by rapid filtration with GF/B filters (presoaked in 0.1% (w/v) polyethylenimine) using a Canberra Packard filtermate 196, washed 3 times with ice-cold Tris-HCl (pH 7.4). Filters were left to dry overnight, and Microscint-0 scintillation fluid was then added to the filters. The filters were then left for at least 2 hours before the radioactivity was assessed using a Canberra Packard TopCount microplate scintillation counter.
To determine the free ligand concentration, three vials were counted with 25 μL of [^3H]DPCPX containing 4 mL of Ultima-Gold MV scintillant on a Beckman LS6500 multi-purpose scintillation counter.
(§1) Data was analysed using a 4 parameter logistical equation and non-linear regression which yields affinity constants (pIC50), and slope parameters:
where E is the quantity of binding and [A] is the competitor concentration. The K, is then determined using the Cheng-Prusoff equation: […]

[2] = target: T2, human adenosine A2A receptors (Homo sapiens, UniProt P29274); experiment: Adenosine receptor binding: binding affinities at hA2A receptors ([3H]CGS-21680 displacement); details: for Ki: displacement of [3H]CGS-21680, HEK-293 cell membranes; for A2A/A1 selectivity ratio (Ki A2A/Ki A1): ratio of measured Ki values at hA2A and hA1
T2 construct: host or cells: HEK-293
Excerpt: Adenosine Receptor Binding: Binding Affinities at hA2A Receptors
The compounds were examined in an assay measuring in vitro binding to human adenosine A2A receptors by determining the displacement of the adenosine A2A receptor selective radioligand 4-[2-[[6-Amino-9-(N-ethyl-β-D-ribofuranuronamidosyl)-9H-purin-2-yl]amino]ethyl]benzenepropanoic acid hydrochloride ([^3H]CGS-21680) using standard techniques. See, for example, Jarvis et al., J Pharmacol Exp Ther., 251(3):888-93, which is incorporated by reference in its entirety.
Frozen HEK-293 cells were homogenized in 65 mL of 50 mM Tris HCl buffer (pH 7.5) containing 10 mM MgCl2, and 0.1 IU/mL adenosine deaminase per pellet using a Ultra-Turrax homogenizer. The resultant homogenate was kept for immediate use in the binding assay.
Binding assays were performed in a total volume of 250 μL, containing [^3H]-CGS21680 (20.0 nM), membranes and additional drugs. Total binding was determined using drug dilution buffer (50 mM Tris-HCl pH 7.5, 10 mM MgCl2, 5% DMSO). Non-specific binding was determined using 300 μM CHA. Following incubation for 90 minutes at 21° C., assays were terminated by rapid filtration with GF/B filters (presoaked in 0.1% (w/v) polyethylenimine) using a Canberra Packard filtermate 196, washed 3 times with ice-cold Tris-HCl (pH 7.4). Filters were left to dry overnight, and Microscint-0 scintillation fluid was then added to the filters. The filters were then left for at least 2 hours before the radioactivity was assessed using a Canberra Packard TopCount microplate scintillation counter.
To determine the free ligand concentration, three vials were counted with 25 μL of [^3H]CGS21680 containing 4 mL of Ultima-Gold MV scintillant on a Beckman LS6500 multi-purpose scintillation counter.
as §1
where E is the quantity of binding and [A] is the competitor concentration. The Ki is then determined using the Cheng-Prusoff equation: […]

T2 sequence (P29274 whole entry): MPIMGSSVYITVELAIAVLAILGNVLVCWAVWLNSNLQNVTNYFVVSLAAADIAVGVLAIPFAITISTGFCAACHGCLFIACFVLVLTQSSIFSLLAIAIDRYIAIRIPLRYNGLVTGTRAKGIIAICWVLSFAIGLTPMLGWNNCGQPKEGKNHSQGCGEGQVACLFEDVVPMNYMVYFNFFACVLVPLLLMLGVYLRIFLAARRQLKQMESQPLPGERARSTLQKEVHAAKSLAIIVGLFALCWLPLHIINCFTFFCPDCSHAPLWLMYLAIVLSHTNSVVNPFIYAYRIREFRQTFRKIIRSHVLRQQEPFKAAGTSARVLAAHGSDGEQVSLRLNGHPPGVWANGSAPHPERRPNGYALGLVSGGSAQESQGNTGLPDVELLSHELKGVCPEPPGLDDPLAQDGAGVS

For `COc1cc(NS(=O)(=O)O)ccc1Cn1nnc2c(-c3ccccc3)nc(N)nc21` [4-[(5-amino-7-phenyl-3H-[1,2,3]triazolo[4,5-d]pyrimidin-3-yl)methyl]-3-methoxyphenylsulfamic acid], the Ki [1] was greater than 10000 nM, the Ki [2] was 1000 to 10000 nM and the “A2A/A1 selectivity ratio (Ki A2A/Ki A1)” value [2] was “F (5 to 10)”.

`COc1cc(NS(=O)(=O)O)ccc1Cn1nnc2c(-c3cccs3)nc(N)nc21` [4-[(5-amino-7-(thiophen-2-yl)-3H-[1,2,3]triazolo[4,5-d]pyrimidin-3-yl)methyl]-3-methoxyphenylsulfamic acid] was tested, and the Ki [1] was greater than 10000 nM, the Ki [2] was 1000 to 10000 nM and the “A2A/A1 selectivity ratio (Ki A2A/Ki A1)” value [2] was “F (5 to 10)”.

For `COc1ccccc1-c1nc(N)nc2c1nnn2Cc1ccc(NS(=O)(=O)O)c(C)c1` [4-[(5-amino-7-(2-methoxyphenyl)-3H-[1,2,3]triazolo[4,5-d]pyrimidin-3-yl)methyl]-2-methylphenylsulfamic acid], the Ki [1] was greater than 10000 nM, the Ki [2] was 1000 to 10000 nM and the “A2A/A1 selectivity ratio (Ki A2A/Ki A1)” value [2] was “E (less than 5)”.

`COc1ccccc1-c1nc(N)nc2c1nnn2Cc1cccc(NS(=O)(=O)O)c1` [3-[(5-amino-7-(2-methoxyphenyl)-3H-[1,2,3]triazolo[4,5-d]pyrimidin-3-yl)methyl]-phenylsulfamic acid] was tested, and the Ki [1] was 1000 to 10000 nM, the Ki [2] was 1000 to 10000 nM and the “A2A/A1 selectivity ratio (Ki A2A/Ki A1)” value [2] was “E (less than 5)”.

In the case of `COc1ccccc1-c1nc(N)nc2c1nnn2Cc1ccc(C)c(NS(=O)(=O)O)c1` [5-[(5-amino-7-(2-methoxyphenyl)-3H-[1,2,3]triazolo[4,5-d]pyrimidin-3-yl)methyl]-2-methylphenylsulfamic acid], the Ki [1] is reported as 1000 to 10000 nM, the Ki [2] is reported as 1000 to 10000 nM and the “A2A/A1 selectivity ratio (Ki A2A/Ki A1)” value [2] is reported as “E (less than 5)”.

`Cc1ccc(Cn2nnc3c(-c4cccs4)nc(N)nc32)cc1NS(=O)(=O)O` [5-[(5-amino-7-(thiophen-2-yl)-3H-[1,2,3]triazolo[4,5-d]pyrimidin-3-yl)methyl]-2-methylphenylsulfamic acid] was tested, and the Ki [1] was 1000 to 10000 nM, the Ki [2] was no more than 100 nM and the “A2A/A1 selectivity ratio (Ki A2A/Ki A1)” value [2] was “H (more than 20)”.

`COc1cc(Cn2nnc3c(-c4ccccc4OC)nc(N)nc32)ccc1NS(=O)(=O)O` [4-[(5-amino-7-(2-methoxyphenyl)-3H-[1,2,3]triazolo[4,5-d]pyrimidin-3-yl)methyl]-2-methoxyphenylsulfamic acid] was tested, and the Ki [1] was greater than 10000 nM, the Ki [2] was greater than 10000 nM and the “A2A/A1 selectivity ratio (Ki A2A/Ki A1)” value [2] was “E (less than 5)”.

`Cc1cc(Cn2nnc3c(-c4cccs4)nc(N)nc32)ccc1NS(=O)(=O)O` [4-[(5-amino-7-(thiophen-2-yl)-3H-[1,2,3]triazolo[4,5-d]pyrimidin-3-yl)methyl]-2-methylphenylsulfamic acid] was tested, and the Ki [1] was 100 to 1000 nM, the Ki [2] was no more than 100 nM and the “A2A/A1 selectivity ratio (Ki A2A/Ki A1)” value [2] was “H (more than 20)”.

`Cc1cc(Cn2nnc3c(-c4ccco4)nc(N)nc32)ccc1NS(=O)(=O)O` [4-[(5-amino-7-(furan-2-yl)-3H-[1,2,3]triazolo[4,5-d]pyrimidin-3-yl)methyl]-2-methylphenylsulfamic acid] was tested, and the Ki [1] was 100 to 1000 nM, the Ki [2] was no more than 100 nM and the “A2A/A1 selectivity ratio (Ki A2A/Ki A1)” value [2] was “H (more than 20)”.

`COc1cc(Cn2nnc3c(-c4ccccc4)nc(N)nc32)ccc1NS(=O)(=O)O` [4-[(5-amino-7-phenyl-3H-[1,2,3]triazolo[4,5-d]pyrimidin-3-yl)methyl]-2-methoxyphenylsulfamic acid] was tested, and the Ki [1] was 1000 to 10000 nM, the Ki [2] was 100 to 1000 nM and the “A2A/A1 selectivity ratio (Ki A2A/Ki A1)” value [2] was “G (10 to 20)”.

With `COc1cc(NS(=O)(=O)O)ccc1Cn1nnc2c(-c3ccc(C)o3)nc(N)nc21` the Ki [1] was 1000 to 10000 nM, the Ki [2] was 100 to 1000 nM and the “A2A/A1 selectivity ratio (Ki A2A/Ki A1)” value [2] was “H (more than 20)”.

`Cc1ccc(Cn2nnc3c(-c4ccco4)nc(N)nc32)cc1NS(=O)(=O)O` [5-[(5-amino-7-(furan-2-yl)-3H-[1,2,3]triazolo[4,5-d]pyrimidin-3-yl)methyl]-2-methylphenylsulfamic acid] was tested, and the Ki [1] was 100 to 1000 nM, the Ki [2] was no more than 100 nM and the “A2A/A1 selectivity ratio (Ki A2A/Ki A1)” value [2] was “H (more than 20)”.

`Nc1nc(-c2cccs2)c2nnn(Cc3cccc(NS(=O)(=O)O)c3)c2n1` [3-[(5-amino-7-(thiophen-2-yl)-3H-[1,2,3]triazolo[4,5-d]pyrimidin-3-yl)methyl]-phenylsulfamic acid] was tested, and the Ki [1] was 1000 to 10000 nM, the Ki [2] was 100 to 1000 nM and the “A2A/A1 selectivity ratio (Ki A2A/Ki A1)” value [2] was “G (10 to 20)”.

For `Nc1nc(-c2ccccc2)c2nnn(Cc3ccc(NS(=O)(=O)O)cc3)c2n1` [4-[(5-amino-7-(phenyl,2,3]triazolo[4,5-d]pyrimidin-3-yl)methyl]phenylsulfamic acid], the Ki [1] was 1000 to 10000 nM, the Ki [2] was 100 to 1000 nM and the “A2A/A1 selectivity ratio (Ki A2A/Ki A1)” value [2] was “G (10 to 20)”.

With `COc1cc(NS(=O)(=O)O)ccc1Cn1nnc2c(-c3ccccc3OC)nc(N)nc21` [4-[(5-amino-7-(2-methoxyphenyl)-3H-[1,2,3]triazolo[4,5-d]pyrimidin-3-yl)methyl]-3-methoxyphenylsulfamic acid] the Ki [1] was greater than 10000 nM, the Ki [2] was 1000 to 10000 nM and the “A2A/A1 selectivity ratio (Ki A2A/Ki A1)” value [2] was “E (less than 5)”.

In the case of `Cc1cc(Cn2nnc3c(-c4ccccc4)nc(N)nc32)ccc1NS(=O)(=O)O` [4-[(5-amino-7-phenyl-3H-[1,2,3]triazolo[4,5-d]pyrimidin-3-yl)methyl]-2-methylphenylsulfamic acid], the Ki [1] is reported as 100 to 1000 nM, the Ki [2] is reported as no more than 100 nM and the “A2A/A1 selectivity ratio (Ki A2A/Ki A1)” value [2] is reported as “H (more than 20)”.

For `COc1cc(NS(=O)(=O)O)ccc1Cn1nnc2c(-c3ccco3)nc(N)nc21` [4-[(5-amino-7-(furan-2-yl)-3H-[1,2,3]triazolo[4,5-d]pyrimidin-3-yl)methyl]-3-methoxyphenylsulfamic acid], the Ki [1] was greater than 10000 nM, the Ki [2] was 100 to 1000 nM and the “A2A/A1 selectivity ratio (Ki A2A/Ki A1)” value [2] was “G (10 to 20)”.

With `Nc1nc(-c2ccco2)c2nnn(Cc3ccc(NS(=O)(=O)O)cc3)c2n1` [4-[(5-amino-7-(furan-2-yl)-3H-[1,2,3]triazolo[4,5-d]pyrimidin-3-yl)methyl]phenylsulfamic acid] the Ki [1] was 1000 to 10000 nM, the Ki [2] was no more than 100 nM and the “A2A/A1 selectivity ratio (Ki A2A/Ki A1)” value [2] was “H (more than 20)”.

`COc1ccccc1-c1nc(N)nc2c1nnn2Cc1ccc(NS(=O)(=O)O)cc1` [4-[(5-amino-7-(2-methoxyphenyl)-3H-[1,2,3]triazolo[4,5-d]pyrimidin-3-yl)methyl]phenylsulfamic acid] was tested, and the Ki [1] was greater than 10000 nM, the Ki [2] was 1000 to 10000 nM and the “A2A/A1 selectivity ratio (Ki A2A/Ki A1)” value [2] was “E (less than 5)”.

`Cc1ccc(-c2nc(N)nc3c2nnn3Cc2cccc(NS(=O)(=O)O)c2)o1` [3-[(5-amino-7-(5-methylfuran-2-yl)-3H-[1,2,3]triazolo[4,5-d]pyrimidin-3-yl)methyl]phenylsulfamic acid] was tested, and the Ki [1] was 100 to 1000 nM, the Ki [2] was no more than 100 nM and the “A2A/A1 selectivity ratio (Ki A2A/Ki A1)” value [2] was “H (more than 20)”.

In the case of `Nc1nc(-c2ccccc2)c2nnn(Cc3cccc(NS(=O)(=O)O)c3)c2n1` [3-[(5-amino-7-phenyl-3H-[1,2,3]triazolo[4,5-d]pyrimidin-3-yl)methyl]-phenylsulfamic acid], the Ki [1] is reported as 1000 to 10000 nM, the Ki [2] is reported as no more than 100 nM and the “A2A/A1 selectivity ratio (Ki A2A/Ki A1)” value [2] is reported as “G (10 to 20)”.
